Test results from the kinase profiling compilation of Christmann-Franck et al. (2016).
Values joined by “and” are separate entries in the source; they are usually repeats but may differ in a detail not shown here. Identical values can stand only once.

What was measured:
Test in all cases: KINOMEscan competition binding
Conditions in all cases: compound 10.0 µM
CDK16 (human) = CDK16 (human) (UniProt Q00536)
CDC2L2 (human) = CDC2L2 (human) (UniProt Q9UQ88)
TBK1 (human) = TBK1 (human) (UniProt Q9UHD2)
FLT3 (human) = FLT3 (human) (UniProt P36888)
MAP4K1 (human) = MAP4K1 (human) (UniProt Q92918)
RIOK3 (human) = RIOK3 (human) (UniProt O14730)
TNK1 (human) = TNK1 (human) (UniProt Q13470)
FES (human) = FES (human) (UniProt P07332)
YES1 (human) = YES1 (human) (UniProt P07947)
NEK3 (human) = NEK3 (human) (UniProt P51956)
ULK3 (human) = ULK3 (human) (UniProt Q6PHR2)
[1] = test system: PIK3CA (human), P42336 [H1047Y]
MAPKAPK2 (human) = MAPKAPK2 (human) (UniProt P49137)
EPHB2 (human) = EPHB2 (human) (UniProt P29323)
PIM1 (human) = PIM1 (human) (UniProt P11309)
PHKG2 (human) = PHKG2 (human) (UniProt P15735)
DCLK1 (human) = DCLK1 (human) (UniProt O15075)
KDR (human) = KDR (human) (UniProt P35968)
MAP3K1 (human) = MAP3K1 (human) (UniProt Q13233)
PRKD3 (human) = PRKD3 (human) (UniProt O94806)
STK35 (human) = STK35 (human) (UniProt Q8TDR2)
ROCK2 (human) = ROCK2 (human) (UniProt O75116)
ZAP70 (human) = ZAP70 (human) (UniProt P43403)
[2] = biological target: JAK3 JH1 catalytic (human) (UniProt P52333)
OXSR1 (human) = OXSR1 (human) (UniProt O95747)
MAP2K3 (human) = MAP2K3 (human) (UniProt P46734)
MAPK6 (human) = MAPK6 (human) (UniProt Q16659)
STK10 (human) = STK10 (human) (UniProt O94804)
PRPF4B (human) = PRPF4B (human) (UniProt Q13523)
MAP2K2 (human) = MAP2K2 (human) (UniProt P36507)
PRKD1 (human) = PRKD1 (human) (UniProt Q15139)
PKN3 (M.tuberculosis) = PKN3 (M.tuberculosis) (UniProt Q6P5Z2)
TNIK (human) = TNIK (human) (UniProt Q9UKE5)
STK38L (human) = STK38L (human) (UniProt Q9Y2H1)
ACVR1B (human) = ACVR1B (human) (UniProt P36896)
STK11 (human) = STK11 (human) (UniProt Q15831)
MAPK14 (human) = MAPK14 (human) (UniProt Q16539)
DSTYK (human) = DSTYK (human) (UniProt Q6XUX3)
IKBKB (human) = IKBKB (human) (UniProt O14920)
TYRO3 (human) = TYRO3 (human) (UniProt Q06418)

MAPKAPK2 (human), sequence (P49137 whole entry, looked up): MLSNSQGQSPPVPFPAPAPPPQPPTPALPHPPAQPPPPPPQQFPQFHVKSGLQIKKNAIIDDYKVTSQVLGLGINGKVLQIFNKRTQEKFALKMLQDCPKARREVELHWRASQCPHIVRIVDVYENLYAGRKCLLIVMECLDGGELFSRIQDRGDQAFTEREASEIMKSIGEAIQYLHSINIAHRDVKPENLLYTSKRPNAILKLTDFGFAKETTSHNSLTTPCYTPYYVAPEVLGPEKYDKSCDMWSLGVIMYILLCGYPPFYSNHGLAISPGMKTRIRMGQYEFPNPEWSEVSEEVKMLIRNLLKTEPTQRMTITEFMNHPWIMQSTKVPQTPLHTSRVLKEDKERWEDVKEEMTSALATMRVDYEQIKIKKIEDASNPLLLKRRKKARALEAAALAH
PRPF4B (human), sequence (Q13523 whole entry, looked up): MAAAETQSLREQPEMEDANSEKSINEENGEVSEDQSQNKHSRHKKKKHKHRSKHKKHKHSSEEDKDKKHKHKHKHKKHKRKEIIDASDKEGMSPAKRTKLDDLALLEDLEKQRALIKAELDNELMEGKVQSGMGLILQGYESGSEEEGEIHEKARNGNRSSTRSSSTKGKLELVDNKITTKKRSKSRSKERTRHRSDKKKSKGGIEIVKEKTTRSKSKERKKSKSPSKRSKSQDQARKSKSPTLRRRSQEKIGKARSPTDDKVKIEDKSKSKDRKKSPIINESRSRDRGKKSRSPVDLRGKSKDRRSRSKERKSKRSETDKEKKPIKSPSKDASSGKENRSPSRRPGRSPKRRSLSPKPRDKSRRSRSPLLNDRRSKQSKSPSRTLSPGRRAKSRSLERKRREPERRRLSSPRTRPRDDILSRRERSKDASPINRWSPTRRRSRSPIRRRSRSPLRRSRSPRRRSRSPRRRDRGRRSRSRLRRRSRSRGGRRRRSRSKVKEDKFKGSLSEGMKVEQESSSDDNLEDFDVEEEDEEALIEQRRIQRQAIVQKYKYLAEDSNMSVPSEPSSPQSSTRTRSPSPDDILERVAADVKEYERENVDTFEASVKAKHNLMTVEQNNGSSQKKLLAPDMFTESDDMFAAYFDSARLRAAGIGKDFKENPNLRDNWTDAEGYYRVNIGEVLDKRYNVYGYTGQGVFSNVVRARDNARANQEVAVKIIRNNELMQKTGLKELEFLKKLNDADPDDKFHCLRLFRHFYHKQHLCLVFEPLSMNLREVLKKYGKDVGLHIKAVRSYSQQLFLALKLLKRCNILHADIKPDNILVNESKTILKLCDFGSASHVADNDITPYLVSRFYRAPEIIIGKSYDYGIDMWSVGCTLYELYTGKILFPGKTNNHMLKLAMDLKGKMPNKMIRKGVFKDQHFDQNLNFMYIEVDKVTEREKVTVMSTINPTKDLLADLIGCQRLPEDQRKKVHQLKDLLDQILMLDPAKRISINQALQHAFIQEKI
YES1 (human), sequence (P07947 whole entry, looked up): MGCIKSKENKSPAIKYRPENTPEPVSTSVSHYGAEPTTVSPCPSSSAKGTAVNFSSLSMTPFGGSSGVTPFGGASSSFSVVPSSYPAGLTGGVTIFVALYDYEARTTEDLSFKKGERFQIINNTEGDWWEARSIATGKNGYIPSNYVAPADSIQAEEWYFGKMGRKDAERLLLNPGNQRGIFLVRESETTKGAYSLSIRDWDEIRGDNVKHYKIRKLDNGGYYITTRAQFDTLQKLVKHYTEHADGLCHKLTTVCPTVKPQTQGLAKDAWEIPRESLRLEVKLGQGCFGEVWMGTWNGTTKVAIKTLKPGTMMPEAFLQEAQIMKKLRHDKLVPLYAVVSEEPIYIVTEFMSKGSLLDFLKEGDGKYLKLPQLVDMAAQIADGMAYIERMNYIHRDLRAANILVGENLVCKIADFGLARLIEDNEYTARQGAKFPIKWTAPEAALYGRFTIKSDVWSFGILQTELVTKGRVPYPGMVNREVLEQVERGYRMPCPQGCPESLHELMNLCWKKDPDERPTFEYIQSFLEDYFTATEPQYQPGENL
ULK3 (human), sequence (Q6PHR2 whole entry, looked up): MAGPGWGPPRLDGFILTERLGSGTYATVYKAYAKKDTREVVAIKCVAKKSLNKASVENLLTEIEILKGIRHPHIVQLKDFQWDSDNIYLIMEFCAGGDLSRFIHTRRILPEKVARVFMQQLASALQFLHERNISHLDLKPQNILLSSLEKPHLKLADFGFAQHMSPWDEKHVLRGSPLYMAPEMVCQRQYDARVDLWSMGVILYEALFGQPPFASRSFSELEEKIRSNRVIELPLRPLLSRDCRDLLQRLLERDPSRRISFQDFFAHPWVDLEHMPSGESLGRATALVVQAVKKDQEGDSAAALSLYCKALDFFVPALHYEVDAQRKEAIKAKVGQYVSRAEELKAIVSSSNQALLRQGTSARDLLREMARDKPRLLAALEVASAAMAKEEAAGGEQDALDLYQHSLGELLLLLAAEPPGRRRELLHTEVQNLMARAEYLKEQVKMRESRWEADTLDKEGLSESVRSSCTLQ
TBK1 (human), sequence (Q9UHD2 whole entry, looked up): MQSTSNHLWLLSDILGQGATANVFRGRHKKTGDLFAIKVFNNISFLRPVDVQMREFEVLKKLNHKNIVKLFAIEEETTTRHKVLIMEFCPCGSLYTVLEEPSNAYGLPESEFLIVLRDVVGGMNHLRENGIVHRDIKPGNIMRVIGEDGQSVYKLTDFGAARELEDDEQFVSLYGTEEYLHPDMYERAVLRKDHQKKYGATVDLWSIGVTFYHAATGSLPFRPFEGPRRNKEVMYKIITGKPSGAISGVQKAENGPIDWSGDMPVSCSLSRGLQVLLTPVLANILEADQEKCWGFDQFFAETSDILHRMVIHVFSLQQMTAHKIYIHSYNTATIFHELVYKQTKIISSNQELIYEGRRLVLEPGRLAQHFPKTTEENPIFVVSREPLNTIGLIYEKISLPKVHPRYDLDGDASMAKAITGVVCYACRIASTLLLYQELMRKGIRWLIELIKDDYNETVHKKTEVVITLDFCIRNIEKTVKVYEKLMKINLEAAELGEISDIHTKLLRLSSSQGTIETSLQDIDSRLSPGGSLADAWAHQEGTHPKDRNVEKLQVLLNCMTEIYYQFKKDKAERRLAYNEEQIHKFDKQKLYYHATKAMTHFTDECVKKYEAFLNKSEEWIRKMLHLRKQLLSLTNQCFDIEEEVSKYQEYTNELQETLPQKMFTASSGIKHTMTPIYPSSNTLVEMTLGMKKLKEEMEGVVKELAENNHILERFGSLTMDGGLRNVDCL
MAP4K1 (human), sequence (Q92918 whole entry, looked up): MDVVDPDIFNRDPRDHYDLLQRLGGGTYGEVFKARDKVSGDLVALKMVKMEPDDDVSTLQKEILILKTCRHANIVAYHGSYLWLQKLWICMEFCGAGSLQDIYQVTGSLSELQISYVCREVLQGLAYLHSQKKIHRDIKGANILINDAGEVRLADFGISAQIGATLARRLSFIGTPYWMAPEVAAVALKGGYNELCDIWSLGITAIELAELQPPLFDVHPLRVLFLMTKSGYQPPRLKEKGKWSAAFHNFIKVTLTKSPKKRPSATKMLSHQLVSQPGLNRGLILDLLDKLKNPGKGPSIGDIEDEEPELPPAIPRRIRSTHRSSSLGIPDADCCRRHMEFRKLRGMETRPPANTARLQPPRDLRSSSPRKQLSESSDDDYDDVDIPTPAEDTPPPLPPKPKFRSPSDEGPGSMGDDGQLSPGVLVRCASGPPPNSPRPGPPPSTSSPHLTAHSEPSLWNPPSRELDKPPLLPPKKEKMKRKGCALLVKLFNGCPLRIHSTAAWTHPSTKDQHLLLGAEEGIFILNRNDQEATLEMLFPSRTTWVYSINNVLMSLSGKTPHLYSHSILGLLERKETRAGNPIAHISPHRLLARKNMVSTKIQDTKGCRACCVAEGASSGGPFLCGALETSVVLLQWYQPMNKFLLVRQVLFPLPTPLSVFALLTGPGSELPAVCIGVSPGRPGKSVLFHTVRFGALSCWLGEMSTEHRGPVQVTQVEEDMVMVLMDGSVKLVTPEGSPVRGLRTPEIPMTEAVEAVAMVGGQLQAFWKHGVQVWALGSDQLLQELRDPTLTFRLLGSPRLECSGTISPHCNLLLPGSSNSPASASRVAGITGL
FES (human), sequence (P07332 whole entry, looked up): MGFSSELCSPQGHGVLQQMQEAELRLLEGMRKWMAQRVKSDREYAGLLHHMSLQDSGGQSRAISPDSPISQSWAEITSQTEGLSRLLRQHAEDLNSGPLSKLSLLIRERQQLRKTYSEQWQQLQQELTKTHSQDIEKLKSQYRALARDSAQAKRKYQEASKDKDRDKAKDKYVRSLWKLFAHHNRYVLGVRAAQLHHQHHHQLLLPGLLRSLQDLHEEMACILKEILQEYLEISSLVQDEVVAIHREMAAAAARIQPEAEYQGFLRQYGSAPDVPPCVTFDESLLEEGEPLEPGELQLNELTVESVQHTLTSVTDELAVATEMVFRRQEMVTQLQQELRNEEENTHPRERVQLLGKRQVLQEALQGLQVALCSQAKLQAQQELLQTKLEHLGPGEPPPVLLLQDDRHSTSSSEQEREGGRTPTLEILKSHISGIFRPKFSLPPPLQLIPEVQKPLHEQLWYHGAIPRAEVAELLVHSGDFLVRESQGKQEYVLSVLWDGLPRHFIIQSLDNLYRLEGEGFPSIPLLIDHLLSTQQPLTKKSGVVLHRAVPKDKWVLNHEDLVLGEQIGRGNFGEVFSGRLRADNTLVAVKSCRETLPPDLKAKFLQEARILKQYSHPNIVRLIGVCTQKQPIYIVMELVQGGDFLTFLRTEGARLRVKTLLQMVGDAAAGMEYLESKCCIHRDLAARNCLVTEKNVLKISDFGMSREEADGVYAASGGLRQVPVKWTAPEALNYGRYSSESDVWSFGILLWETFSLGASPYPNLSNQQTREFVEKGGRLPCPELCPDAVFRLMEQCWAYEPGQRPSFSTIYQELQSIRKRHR

Compound | kinase still bound, per cent of control (CDK16 (human)) | kinase still bound, per cent of control (CDC2L2 (human)) | kinase still bound, per cent of control (TBK1 (human)) | kinase still bound, per cent of control (FLT3 (human)) | kinase still bound, per cent of control (MAP4K1 (human)) | kinase still bound, per cent of control (RIOK3 (human)) | kinase still bound, per cent of control (TNK1 (human)) | kinase still bound, per cent of control (FES (human)) | kinase still bound, per cent of control (YES1 (human)) | kinase still bound, per cent of control (NEK3 (human)) | kinase still bound, per cent of control (ULK3 (human)) | kinase still bound, per cent of control [1] | kinase still bound, per cent of control (MAPKAPK2 (human)) | kinase still bound, per cent of control (EPHB2 (human)) | kinase still bound, per cent of control (PIM1 (human)) | kinase still bound, per cent of control (PHKG2 (human)) | kinase still bound, per cent of control (DCLK1 (human)) | kinase still bound, per cent of control (KDR (human)) | kinase still bound, per cent of control (MAP3K1 (human)) | kinase still bound, per cent of control (PRKD3 (human)) | other results
O=C1Nc2ccc(I)cc2/C1=C/c1cc(Br)c(O)c(Br)c1 | 89% | 73% | 95% | 3.6% | 71% | 17% | 100% | 95% | 90% | 95% | 12% | 76% | 100% | 100% | 2.8% | 92% | 86% | 100% | 84% | 100% | kinase still bound, per cent of control (STK35 (human)): 100%; kinase still bound, per cent of control (ROCK2 (human)): 55%; kinase still bound, per cent of control (ZAP70 (human)): 84%; kinase still bound, per cent of control [2]: 14%; kinase still bound, per cent of control (OXSR1 (human)): 100%; kinase still bound, per cent of control (MAP2K3 (human)): 46%; kinase still bound, per cent of control (MAPK6 (human)): 100%; kinase still bound, per cent of control (STK10 (human)): 100%; kinase still bound, per cent of control (PRPF4B (human)): 50%; kinase still bound, per cent of control (MAP2K2 (human)): 74%; kinase still bound, per cent of control (PRKD1 (human)): 100%; kinase still bound, per cent of control (PKN3 (M.tuberculosis)): 64%; kinase still bound, per cent of control (TNIK (human)): 2.7%; kinase still bound, per cent of control (STK38L (human)): 31%; kinase still bound, per cent of control (ACVR1B (human)): 33%; kinase still bound, per cent of control (STK11 (human)): 84%; kinase still bound, per cent of control (MAPK14 (human)): 36%; kinase still bound, per cent of control (DSTYK (human)): 66%; kinase still bound, per cent of control (IKBKB (human)): 100%; kinase still bound, per cent of control (TYRO3 (human)): 88%
N#Cc1c(NC(=O)c2cccc3ccccc23)sc2c1CCCC2 | 100% | 100% | 88% | 94% and 87% | 89% | 100% | 74% | 100% | 78% | 100% | 94% | 100% | 93% | 75% | 100% | 83% | 100% | 96% | 59% | 84% | kinase still bound, per cent of control (STK35 (human)): 64%; kinase still bound, per cent of control (ROCK2 (human)): 100%; kinase still bound, per cent of control (ZAP70 (human)): 87%; kinase still bound, per cent of control [2]: 98%; kinase still bound, per cent of control (OXSR1 (human)): 100%; kinase still bound, per cent of control (MAP2K3 (human)): 88%; kinase still bound, per cent of control (MAPK6 (human)): 86%; kinase still bound, per cent of control (STK10 (human)): 67%; kinase still bound, per cent of control (PRPF4B (human)): 100%; kinase still bound, per cent of control (MAP2K2 (human)): 100%; kinase still bound, per cent of control (PRKD1 (human)): 100%; kinase still bound, per cent of control (PKN3 (M.tuberculosis)): 100%; kinase still bound, per cent of control (TNIK (human)): 100%; kinase still bound, per cent of control (STK38L (human)): 98%; kinase still bound, per cent of control (ACVR1B (human)): 100%; kinase still bound, per cent of control (STK11 (human)): 81%; kinase still bound, per cent of control (MAPK14 (human)): 100%; kinase still bound, per cent of control (DSTYK (human)): 100%; kinase still bound, per cent of control (IKBKB (human)): 72%; kinase still bound, per cent of control (TYRO3 (human)): 76%
C=CC(=O)Nc1cccc(Nc2nc(N[C@H]3CC[C@H](N(C)C)CC3)nc3c2ncn3C(C)C)c1 | 100% | 98% | 84% | 2.6% | 74% | 34% | 100% | 85% | 23% | 60% | 52% | 90% | 100% | 87% | 92% | 44% | 30% | 96% | 100% | 80% | kinase still bound, per cent of control (STK35 (human)): 80%; kinase still bound, per cent of control (ROCK2 (human)): 10%; kinase still bound, per cent of control (ZAP70 (human)): 77%; kinase still bound, per cent of control [2]: 89%; kinase still bound, per cent of control (OXSR1 (human)): 33%; kinase still bound, per cent of control (MAP2K3 (human)): 77%; kinase still bound, per cent of control (MAPK6 (human)): 100%; kinase still bound, per cent of control (STK10 (human)): 72%; kinase still bound, per cent of control (PRPF4B (human)): 90%; kinase still bound, per cent of control (MAP2K2 (human)): 100%; kinase still bound, per cent of control (PRKD1 (human)): 100%; kinase still bound, per cent of control (PKN3 (M.tuberculosis)): 82%; kinase still bound, per cent of control (TNIK (human)): 35%; kinase still bound, per cent of control (STK38L (human)): 41%; kinase still bound, per cent of control (ACVR1B (human)): 87%; kinase still bound, per cent of control (STK11 (human)): 66%; kinase still bound, per cent of control (MAPK14 (human)): 95%; kinase still bound, per cent of control (DSTYK (human)): 86%; kinase still bound, per cent of control (IKBKB (human)): 76%; kinase still bound, per cent of control (TYRO3 (human)): 100%
